Literature values, collected in patent US20050267140A1, “Method for treating abnormal cell growth” (priority 2004, published 2005).
Like-named read-outs stand apart in the source and are kept apart here.

Test system: previously untreated patients with metastatic colorectal cancer
[1] = capecitabine treatment arms, 2500 mg/m^2/day for 14 days every 3 weeks

Grade 3-4 diarrhea [1]: 14%
Grade 3-4 hand-foot syndrome [1]: 17%
SMILES: CCCCCOC(=O)Nc1nc(=O)n([C@@H]2O[C@H](C)[C@@H](O)[C@H]2O)cc1F [capecitabine, 5′-deoxy-5-fluoro-N-[(pentyloxy)-carbonyl]-cytidine]
Median survival (European trial (N=602), p=0.30): 13.3 months
Median survival (US trial (N=605), p=0.24): 12.5 months
Overall response rate (first of the 2 trials as listed ('respectively'), p=0.014): 21%
Overall response rate (second of the 2 trials as listed ('respectively'), p=0.03): 21%
